# Measured values: patent publication US12065692B2, “Optical super-multiplexing by polyynes” (The Trustees of Columbia University in the City of New York, priority 2017, dated 2024)
# System: live HeLa cells
# Experiment: Live-cell SRS imaging of organelle-targeted polyynes and co-localization with fluorescent organelle markers
# Format: cell-based
# Method: FIG. 9 is live-cell SRS imaging of organelle-targeted polyynes and co-localization with fluorescent organelle markers. […] High co-localizations are also observed between organelle-targeted polyynes with commercial fluorescent markers;
# HeLa cells are cultured on a glass coverslip in a 4-well plate for 24 h, and […] Carbow2141 Mito is added in the media for 1 h at 37° C. Cells are washed with PBS for three times before imaging. For co-localization, 100 nM MitoTracker Deep Red is used to stain mitochondria for 1 h.
# Cells were cultured on a glass coverslip in a 4-well plate for 24 h, and 4 μM Carbow2141 Lyso is added to cells for 30 min at 37° C. Cells are washed with PBS for three times before imaging. For co-localization, 100 nM LysoTracker Red (Invitrogen, L7528) is used to stain lysosome for 30 min.
# Cell are incubated with 3 μM Carbow2141 PM in the culture media for 20 min at 37° C. and are washed with PBS for three times before imaging. For co-localization, 0.5 μg/mL CellMask Deep Red (Invitrogen, C10046) is used to stain cell membrane for 5 min.
# Cells were cultured on a glass coverslip in a 4-well plate for 24 h and incubated with 10 μM Carbow2226 ER for 2 h at 37° C. Cells were washed with PBS for three times before imaging. For colocalization, 1 μM ERTracker Green (Invitrogen, E34251) was used to stain endoplasmic reticulum for 2 h. […]
structure (smiles),measurement,value
O=C(NCCC[P+](c1ccccc1)(c1ccccc1)c1ccccc1)OCc1ccc(C#CC#CC#CC#Cc2ccccc2)cc1 [4-yne Mito],organelle localization / co-localization with fluorescent markers,specific localization to mitochondria
